The record followed here is ChEMBL document CHEMBL1134072, “Anodic oxidation of ifosfamide and cyclophosphamide: a biomimetic metabolism model of the oxazaphosphorinane anticancer drugs” (Bioorg Med Chem Lett, 2001).

Molecules are shown by their SMILES. pIC50: −log10 of the molar value.

The nature of the assay: In vitro cytotoxicity tested as inhibitory concentration against carcinoma KB cell line. The format is functional, cell-based. The settings on record: Homo sapiens.
Usually pIC50 stands for the negative decadic logarithm of the IC50, by convention in mol/L. A lower pIC50 goes with a high IC50. As to `O=P1(NCCCl)OCCC(O)N1CCCl` (stereo not drawn) [ALDOIFOSFAMIDE], the pIC50 was 5.00.

Compound `CO[C@H]1CCOP(=O)(NCCCl)N1CCCl` (stereo partly drawn) had a pIC50 of 4.70.

The compound `CO[C@@H]1CCOP(=O)(NCCCl)N1CCCl` (stereo partly drawn) gave a pIC50 of 4.66.
